We go through one compound from patent publication US9663448B2, “Tri-aryl compounds and compositions comprising the same” (BEN-GURION UNIVERSITY OF THE NEGEV RESEARCH AND DEVELOPMENT …, priority 2007, dated 2017).

The data set is described as follows: Solubility noted at work-up of the synthesis. It is filed as physicochemical. The conditions noted are these: qualitative remark. On the procedure:
1,1,1-tris(4-hydroxyphenyl)ethane (1.53 gr, 5 mM), formaldehyde (1.35 gr, 45 mM) and 1-methyl piperazine (2.5 ml, 50 mM) in 20 ml water and 25 ml EtOH were refluxed for 3 hours. Evaporation provided a solid that by TLC and NMR contained 2 products, which was not the starting material. Formaldehyde (0.75 gr, 25 mM) and 1-methyl piperazine (1.5 ml, 30 mM) were added to 5 ml water and 10 ml EtOH and the reaction was refluxed for 4 hours. Evaporation and workup gave 3.3 gr light yellow-white solid, 67% yield, mp. […].

SMILES strings stand for the structures.

On to `CN1CCN(Cc2cc(C(C)(c3cc(CN4CCN(C)CC4)c(O)c(CN4CCN(C)CC4)c3)c3cc(CN4CCN(C)CC4)c(O)c(CN4CCN(C)CC4)c3)cc(CN3CCN(C)CC3)c2O)CC1` [VIII], for which the solubility in ethanol result (solvent ethanol) is “Soluble”. For the same compound, for the setting “solvent water”, the solubility in water result is recorded as “very good solubility”.
